Test results taken from PubChem BioAssay AID1963825 (Molecular Pharmacology Branch, DTP, NCI, 2024).

Assay: Anticancer human tumor 997537-175-T-J1-PDC patient-derived colon adenocarcinoma cell line growth inhibition [POLQ]
Settings: 997537-175-T-J1-PDC complex spheroid viability, combination with POLQ inhibitors; for IC50: curve of first compound; for viability, T/C: stronger effect = lower value
Method in brief: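 Three-cell-type spheroids modelling solid tumor plus stroma served as the readout system; POL inhibitors were tested individually and in combination, concentration ranges set by clinical Cmax where known.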

[1] = second compound 0.0316 µM, first compound 0.0316 µM
[2] = second compound 0.0316 µM, first compound 0.1 µM
[3] = second compound 0.1 µM, first compound 0.0316 µM
[4] = second compound 0.1 µM, first compound 0.1 µM
[5] = second compound 0.316 µM, first compound 0.0316 µM
[6] = second compound 0.316 µM, first compound 0.1 µM
[7] = second compound 1 µM, first compound 0.0316 µM
[8] = second compound 1 µM, first compound 0.1 µM
[9] = second compound 3.16 µM, first compound 0.0316 µM
[10] = second compound 3.16 µM, first compound 0.1 µM
[11] = second compound 10 µM, first compound 0.0316 µM
[12] = second compound 10 µM, first compound 0.1 µM
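Note: luminescence signal used as a surrogate for viable cells; spheroids exposed to drugs for seven days before readout.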

Cn1ncnc1[C@H]1c2n[nH]c(=O)c3cc(F)cc(c23)N[C@@H]1c1ccc(F)cc1 + Cc1cccc(N(C)C(=O)C2C(O)CCN2c2nc(C)cc(C(F)(F)F)c2C#N)c1
IC50 (second compound 0.0316 µM): > 0.1 µM | IC50 (second compound 0.1 µM): > 0.1 µM | IC50 (second compound 0.316 µM): > 0.1 µM | IC50 (second compound 1 µM): > 0.1 µM | IC50 (second compound 3.16 µM): > 0.1 µM | IC50 (second compound 10 µM): > 0.1 µM | viability, T/C (second compound 0.0316 µM, first compound 0.000316 µM): 98% | viability, T/C (second compound 0.0316 µM, first compound 0.001 µM): 109% | viability, T/C (second compound 0.0316 µM, first compound 0.00316 µM): 93.5% | viability, T/C (second compound 0.0316 µM, first compound 0.01 µM): 98.6% | viability, T/C [1]: 110% | viability, T/C [2]: 90% | viability, T/C (second compound 0.1 µM, first compound 0.000316 µM): 94.8% | viability, T/C (second compound 0.1 µM, first compound 0.001 µM): 113% | viability, T/C (second compound 0.1 µM, first compound 0.00316 µM): 76.2% | viability, T/C (second compound 0.1 µM, first compound 0.01 µM): 119% | viability, T/C [3]: 113% | viability, T/C [4]: 97.6% | viability, T/C (second compound 0.316 µM, first compound 0.000316 µM): 90.6% | viability, T/C (second compound 0.316 µM, first compound 0.001 µM): 102% | viability, T/C (second compound 0.316 µM, first compound 0.00316 µM): 94.3% | viability, T/C (second compound 0.316 µM, first compound 0.01 µM): 94.6% | viability, T/C [5]: 91.1% | viability, T/C [6]: 91.4% | viability, T/C (second compound 1 µM, first compound 0.000316 µM): 92.6% | viability, T/C (second compound 1 µM, first compound 0.001 µM): 109% | viability, T/C (second compound 1 µM, first compound 0.00316 µM): 96.1% | viability, T/C (second compound 1 µM, first compound 0.01 µM): 100% | viability, T/C [7]: 98.3% | viability, T/C [8]: 84.4% | viability, T/C (second compound 3.16 µM, first compound 0.000316 µM): 105% | viability, T/C (second compound 3.16 µM, first compound 0.001 µM): 109% | viability, T/C (second compound 3.16 µM, first compound 0.00316 µM): 95.6% | viability, T/C (second compound 3.16 µM, first compound 0.01 µM): 91.5% | viability, T/C [9]: 92.1% | viability, T/C [10]: 94.7% | viability, T/C (second compound 10 µM, first compound 0.000316 µM): 102% | viability, T/C (second compound 10 µM, first compound 0.001 µM): 93.1% | viability, T/C (second compound 10 µM, first compound 0.00316 µM): 89.8% | viability, T/C (second compound 10 µM, first compound 0.01 µM): 84.4% | viability, T/C [11]: 84.4% | viability, T/C [12]: 99.3%

O=C(Nc1ccc(O)c(NS(=O)(=O)c2ccc(F)cc2)c1)c1ccc(-c2ccccc2)cc1 + COC1C(OC(N)=O)C(O)C(Oc2ccc3c(O)c(NC(=O)c4ccc(O)c(CC=C(C)C)c4)c(=O)oc3c2C)OC1(C)C
IC50 (second compound 0.0316 µM): > 10 µM | IC50 (second compound 0.1 µM): > 10 µM | IC50 (second compound 0.316 µM): > 10 µM | IC50 (second compound 1 µM): > 10 µM | IC50 (second compound 3.16 µM): > 10 µM | IC50 (second compound 10 µM): > 10 µM | viability, T/C [1]: 98.4% | viability, T/C [2]: 109% | viability, T/C (second compound 0.0316 µM, first compound 0.316 µM): 104% | viability, T/C (second compound 0.0316 µM, first compound 1 µM): 103% | viability, T/C (second compound 0.0316 µM, first compound 3.16 µM): 102% | viability, T/C (second compound 0.0316 µM, first compound 10 µM): 97.3% | viability, T/C [3]: 112% | viability, T/C [4]: 94.4% | viability, T/C (second compound 0.1 µM, first compound 0.316 µM): 97% | viability, T/C (second compound 0.1 µM, first compound 1 µM): 88.8% | viability, T/C (second compound 0.1 µM, first compound 3.16 µM): 96% | viability, T/C (second compound 0.1 µM, first compound 10 µM): 95.1% | viability, T/C [5]: 108% | viability, T/C [6]: 102% | viability, T/C (second compound 0.316 µM, first compound 0.316 µM): 105% | viability, T/C (second compound 0.316 µM, first compound 1 µM): 96% | viability, T/C (second compound 0.316 µM, first compound 3.16 µM): 102% | viability, T/C (second compound 0.316 µM, first compound 10 µM): 97.3% | viability, T/C [7]: 98.3% | viability, T/C [8]: 98.7% | viability, T/C (second compound 1 µM, first compound 0.316 µM): 86% | viability, T/C (second compound 1 µM, first compound 1 µM): 94% | viability, T/C (second compound 1 µM, first compound 3.16 µM): 93.9% | viability, T/C (second compound 1 µM, first compound 10 µM): 99.3% | viability, T/C [9]: 97.5% | viability, T/C [10]: 93.2% | viability, T/C (second compound 3.16 µM, first compound 0.316 µM): 91.8% | viability, T/C (second compound 3.16 µM, first compound 1 µM): 90.2% | viability, T/C (second compound 3.16 µM, first compound 3.16 µM): 97.5% | viability, T/C (second compound 3.16 µM, first compound 10 µM): 98.8% | viability, T/C [11]: 93.6% | viability, T/C [12]: 95.7% | viability, T/C (second compound 10 µM, first compound 0.316 µM): 109% | viability, T/C (second compound 10 µM, first compound 1 µM): 91.5% | viability, T/C (second compound 10 µM, first compound 3.16 µM): 102% | viability, T/C (second compound 10 µM, first compound 10 µM): 91.5%
